Here are results for nine compounds from publication PMC10221222 (Pharmaceutics, 2023).

Read-outs that look alike come from different tables or passages of the source.

Data set [1] deals with SW480 (colon carcinoma). The note with it: MTT, 96 h exposure; cited from earlier work.
Data set [2] concerns A549 (non-small cell lung cancer). The note with it: MTT, 96 h exposure; cited from earlier work.
The subject of data set [3] is CH1/PA-1 (ovarian teratocarcinoma). The note with it: MTT, 96 h exposure; cited from earlier work.
A short description of data set [4]: Reduction by ascorbic acid followed by time-dependent 1H NMR. Type of data set: physicochemical. The note with it: for Reduction Half-Time: 1 mM Pt, 25 eq. ascorbic acid, phosphate-buffered D2O pD 7.4, ambient temperature; for percentage of the reduced species when measurement was stopped before the half-time: 1:25 ascorbic acid, pD 7.4, ambient temperature, at the time given as bound of the half-time. As for the experimental part:
The reduction of platinum(IV) complexes and representatives of each series of conjugates by ascorbic acid was observed by ^1H NMR spectroscopic measurements at ambient temperature. An amount of 1 mM solutions of platinum(IV) complexes 1–3, 5–7 as well as of the conjugates C2, C11, C13, C22–C24 referred to their corresponding platinum units were prepared in a D2O phosphate-buffered solution (50 mM) at physiological pD = 7.4. Afterwards, ascorbic acid was added as a reducing agent (25 mM, 25 eq.) and ^1H NMR measurements were performed for several days. The reduction behavior for substances 1–3, 5, 6, C2, C11, C13, C22, C23 was monitored by the resulting decrease in intensity of the acetato signal (release of acetic acid). The percentage of reduced species was determined by using the integration ratios of these two signals. Contrarily, ratios of signals of the succinato ligands and free succinic acid were consulted for the reduction determination of substances 7 and C24. However, the reduction half-time of C24 could not be obtained due to the superimposition of the succinato peaks with other signals.
Moreover, the reduction behavior of conjugates in comparison to unattached platinum(IV) complexes was investigated by time-dependent ^1H NMR spectroscopy (Table 3). In general, the reduction behavior is influenced by the nature of the ligands coordinated to the platinum(IV) core. […] In accordance with previous studies, the cisplatin core of substance 1 led to a faster reduction with a reduction half-time of 6 h, whereas only 6% of the carboplatin(IV) analog 2 was reduced after 95 h. Similar to complex 1, the two chlorido ligands of compound 6 allow fast electron transfer, thereby supporting rapid reduction. […] A potential connection between bulkiness and facilitated reduction has been reported in the literature. As further expected, the influence between G2 and G4 dendrimers on the reduction behavior is marginal due to the huge distance to the platinum(IV) core. Therefore, no significant difference in the rate of reduction between conjugates of G2 and G4 dendrimers was observed based on the measurements of C2 and C13, respectively.

Data set [5] concerns A549 (non-small cell lung cancer). Kind of data set: MTT cytotoxicity assay, 96 h exposure, A549 cells. It counts as cell-based, human. The note with it: pertains to dendrimer concentration for C1–C24. As for the experimental part:
(§1) Culture of and 96 h cytotoxicity tests in the human cell lines CH1/PA-1 (ovarian teratocarcinoma), SW480 (colon carcinoma) and A549 (non-small cell lung cancer) were performed as described previously, with the exception that test compounds were dissolved either in sterile water or supplemented MEM and then serially diluted in the latter medium.
(§2) Three human cancer cell lines differing in their chemosensitivity were employed for testing the cytotoxic potencies of all compounds: the broadly sensitive ovarian teratocarcinoma cell line CH1/PA-1, the multidrug-resistant non-small cell lung cancer cell line A549 and the colon cancer cell line SW480 with mostly intermediate sensitivity. This pattern of sensitivity also reflects throughout the data compiled here.
On the technique in general: Tetrazolium assays rely on reduction of a dye to a coloured formazan, in cell work by metabolically active cells.

In data set [6] the test system is CH1/PA-1 (ovarian teratocarcinoma). Description: MTT cytotoxicity assay, 96 h exposure, CH1/PA-1 cells. It counts as cell-based, human. The note with it: pertains to dendrimer concentration for C1–C24. As for the experimental part: as §1
Three human cancer cell lines differing in their chemosensitivity were employed for testing the cytotoxic potencies of all compounds: the broadly sensitive ovarian teratocarcinoma cell line CH1/PA-1, the multidrug-resistant non-small cell lung cancer cell line A549 and the colon cancer cell line SW480 with mostly intermediate sensitivity.

Data set [7] deals with SW480 (colon carcinoma). Kind of data set: MTT cytotoxicity assay, 96 h exposure, SW480 cells. The note with it: pertains to dendrimer concentration for C1–C24. It counts as cell-based, human. As for the experimental part:
as §1, §2

A short description of data set [8]: Tumor, organ and blood distribution of platinum by ICP-MS. It counts as in vivo, male CT26-allograft-bearing BALB/c mice. The note with it: 24 h after second application. As for the experimental part: Blood was taken after 30 min and 24 h after the first application from the facial vein and terminally by cardiac puncture 24 h after the second application. To separate serum from blood pellet, blood was twice spun down at 900 g for 10 min at 4 °C. The platinum amount of all samples was measured by ICP-MS.
Renal excretion and glomerular filtration are typical for ≤G4 PAMAM dendrimers and in general for nanoparticles smaller than 5 nm. […] Additionally, the influence of the molecular weight of nanoparticles on the biodistribution behavior was reported previously. […] On the contrary, the efficient kidney accumulation of this dendrimer preparation might also be considered in kidney-specific drug delivery approaches.

For data set [9], the system named is CT26 murine colon cancer cells. Description: MTT assay in murine cell line CT26. It counts as cell-based. The note with it: 72 h exposure.
Protocol: The MTT assay in the murine cell line CT26 was performed as described in [25].
cells, obtained by MTT assays with 72 h exposure time.
On the set-up of data set [10]: method as in PMID 10222430. The note with it: cited from earlier work.
In data set [11] the test system is CT26 murine colon cancer allograft. Description: Efficacy study in CT26-allograft-bearing mice (tumor volume, survival). The note with it: vs solvent control; i.v. twice a week for two weeks; C12 7.5 mg/kg, cisplatin 3 mg/kg. It counts as in vivo, BALB/c mice. As for the experimental part:
All drugs were dissolved in 0.9% NaCl.
The promising effects further translate into a prolongation trend of animal survival (Figure 4). While in the cisplatin group, weight loss was critical in addition to tumor necrosis, even smaller tumors tended to get necrotic and broke up in C12-treated animals, making the sacrifice of the animals necessary due to ethical guidelines.

Consider `O=C1[O][Pt]2([NH][C@@H]3CCCC[C@H]3[NH]2)[O]C1=O` [Oxaliplatin, reference compound], for which the figures for the IC50 (in the data set on SW480 (colon carcinoma) [1]; in data set [2]; in data set [3]) were 0.29 ± 0.05 µM, 0.98 ± 0.21 µM and 0.18 ± 0.01 µM, respectively.

As for “(OC-6-44)-(3-carboxypropanoato)(1R,2R-cyclohexanem-1,2-diamine)hydroxidooxalatoplatinum(IV) [Complex 7]”, in [4], the “Reduction Half-Time” value was about 29 h. Also, the half-inhibitory concentration (IC50) (commonly the concentration at which inhibition is half-maximal) was found to be 66 ± 2 µM in data set [5], 5.2 ± 0.8 µM in data set [6] and 20 ± 3 µM in the data set on SW480 (colon carcinoma) [7].

Take “(OC-6-44)-Acetatodiammine(3-carboxypropanoato)dichloridoplatinum(IV) [Complex 1]”: the 50% inhibitory concentration (IC50) in the data set with SW480 (colon carcinoma) [1] is 47 ± 11 µM; in data set [2] it was 99 ± 17 µM; in data set [3] it was 1.2 ± 0.5 µM. For the same compound, the “Reduction Half-Time” value in data set [4] was about 6 h.

Take `N.N.O=C([O-])C1(C(=O)[O-])CCC1.[Pt+2]` [Carboplatin, reference compound]: the IC50 in the data set with SW480 (colon carcinoma) [1] is 42 ± 10 µM; in data set [2] it was 38 ± 3 µM; in data set [3], 0.79 ± 0.11 µM.

Regarding `N.N.[Cl][Pt][Cl]` [Cisplatin], the IC50 in the data set with SW480 (colon carcinoma) [1] is 2.3 ± 0.2 µM; in data set [9], 1.85 µM; in data set [2], 3.8 ± 1 µM; in data set [3], 0.073 ± 0.001 µM. In addition, in [8] (30 min and 24 h after first), the “platinum content of blood cells” value is “blood cells contained enhanced platinum contents”. In [8], the “platinum levels in lung tissue” value is “higher levels were detected in lung tissue”. For the same compound, the maximum tolerated dosage in data set [10] is 3 mg/kg. In addition, the “maximum tumor growth inhibition effect” value in data set [11] is given as 47.6%.

With “(OC-6-54)-Acetato(3-carboxypropanoato)(^13C2)oxalato(1R,2R,4R/1S,2S,4S)-(4-trifluoromethyl-cyclohexane-1,2-diamine)platinum(IV) [Complex 5]”, the “Reduction Half-Time” value in data set [4] is reported as over 93 h. Besides, in data set [4], the “percentage of the reduced species when measurement was stopped before the half-time” value (from here on “percentage of the reduced species”) is about 23%. The IC50 stood at 54 ± 6 µM in data set [5], 6 ± 0.9 µM in data set [6] and 33 ± 5 µM in the data set on SW480 (colon carcinoma) [7].

As for “(OC-6-44)-Acetato(3-carboxypropanoato)dichlorido(1R,2R-cyclohexane-1,2-diamine)platinum(IV) [Complex 6]”, the “Reduction Half-Time” value in [4] was about 27 h. Besides, the IC50 was found to be 2.8 ± 0.1 µM in data set [5], 0.44 ± 0.1 µM in data set [6] and 0.85 ± 0.14 µM in the data set with SW480 (colon carcinoma) [7].

Turning to “(OC-6-44)-Acetato(3-carboxypropanoato)(1R,2R-cyclohexane-1,2-diamine)oxalatoplatinum(IV) [Complex 3]”, the IC50 in the data set with SW480 (colon carcinoma) [1] is 22 ± 8 µM; in data set [2], 70 ± 29 µM; in data set [3], 4.1 ± 0.6 µM. In addition, the “Reduction Half-Time” value in data set [4] is over 165 h. In addition, in [4], the “percentage of the reduced species” value is reported as 14%.

On to “(OC-6-44)-Acetaodiammine(3-carboxypropanoato)(cyclobutane-1,1-dicarboxylato)platinum(IV) [Complex 2]”, for which the IC50 with SW480 (colon carcinoma) [1] was over 200 µM; in data set [2] it was over 200 µM; in [3], 16 ± 6 µM. For the same compound, the “Reduction Half-Time” value in [4] was over 95 h. In data set [4], the “percentage of the reduced species” value was found to be 6%.
